Test system: H. pylori 26695
Assay: In vivo inhibition of HsrA: RNA-Seq transcriptomic analysis of exposed cells
Format: cell-based, Helicobacter pylori
Conditions: for log2 Fold Change: exposed to lethal concentrations vs control
Procedure: Bacterial growth from three blood agar plates of H. pylori ATCC 700392 (aka 26695) incubated for 48 h at 37 °C under microaerobic conditions was aseptically resuspended in BHI + FBS and adjusted to 10^7 CFU/mL. BHI broth cultures were incubated microaerobically at 37 °C for 24 h. […] At this time, bacterial growth was stopped by adding 1.5 mL ice-cold RNA stop solution (95% absolute ethanol, 5% acid-buffered phenol) and subsequently incubated on ice. Control samples were exposed to the same amount of DMSO instead of the inhibitor. Helicobacter cells from all samples were harvested by centrifugation (4000 rpm at 4 °C for 10 min), then the pellets were quickly frozen by immersion in liquid nitrogen and stored at −80 °C.
RNA-Seq analysis was performed by GENEWIZ (Azenta Life Sciences, Leipzig, Germany). Frozen cell pellets from two biological replicates of each treatment condition were properly submitted to GENEWIZ in dry ice. RNA-Seq libraries were prepared according to standard protocols via rRNA depletion, RNA fragmentation and random priming, reverse transcription, 5’-phosphorylation and dA-tailing of cDNAs, adaptor ligation, and PCR enrichment. Once the quality of each library was confirmed, they were sequenced on an Illumina NovaSeq 6000 (Illumina, San Diego, CA, USA) with 150-bp paired-ends. Raw sequence reads were filtered to remove possible adapter sequences and nucleotides with poor quality using Trimmomatic v.0.36 [105]. The trimmed reads were subsequently mapped to the H. pylori strain 26695 reference genome NC_000915.1 available on NCBI, by using the Bowtie2 aligner v.2.2.6 [106]. Unique gene hit counts were calculated by using featureCounts from the Subread package v.1.5.2. Only unique reads that fell within the gene regions were counted. Using DESeq2 [108], a comparison of the gene expression between the control and treated groups of samples was performed. The Wald test was used to generate p-values and log2 fold changes. Genes with an adjusted p-value < 0.05 and absolute log2 fold change >1 were considered as differentially expressed genes (DEGs) for each comparison. The RNA-Seq data generated in this study have been deposited in ArrayExpress with the accession number E-MTAB-14255.

SMILES: NC(=NOC(=O)Nc1ccc(Cl)cc1)c1csc([N+](=O)[O-])c1 [Ligand V, N′-{[(4-chloroanilino)carbonyl]}oxy-5-nitrothiophene-3-carboximidamide]
- log2 Fold Change HP0986 (gene HP0986, lethal concentrations of V vs control): 0.434
- log2 Fold Change (gene HP0987): -0.503
- log2 Fold Change HP0989 (gene HP0989, lethal concentrations of V vs control): 0.305
- log2 Fold Change HP0993 (gene HP0993, lethal concentrations of V vs control): 0.415
- log2 Fold Change HP0995 (gene HP0995, lethal concentrations of V vs control): 0.339
- log2 Fold Change HP0997 (gene HP0997, lethal concentrations of V vs control): 0.344
- log2 Fold Change HP1008 (gene HP1008, lethal concentrations of V vs control): 0.406
- log2 Fold Change HP1023 (gene HP1023, lethal concentrations of V vs control): 0.173
- log2 Fold Change HP1030 (gene HP1030, lethal concentrations of V vs control): 0.181
- log2 Fold Change HP1036 (gene HP1036, lethal concentrations of V vs control): 0.464
- log2 Fold Change (gene HP1042): -0.579
- log2 Fold Change HP1057 (gene HP1057, lethal concentrations of V vs control): 0.304
- log2 Fold Change (gene HP1067): -0.595
- log2 Fold Change HP1080 (gene HP1080, lethal concentrations of V vs control): 0.450
- log2 Fold Change HP1083 (gene HP1083, lethal concentrations of V vs control): 0.380
- log2 Fold Change HP1088 (gene HP1088, lethal concentrations of V vs control): 0.367
- log2 Fold Change HP1091 (gene HP1091, lethal concentrations of V vs control): 0.326
- log2 Fold Change HP1094 (gene HP1094, lethal concentrations of V vs control): 0.330
- log2 Fold Change HP1095 (gene HP1095, lethal concentrations of V vs control): 0.451
- log2 Fold Change HP1096 (gene HP1096, lethal concentrations of V vs control): 0.362
- log2 Fold Change HP1098 (gene HP1098, lethal concentrations of V vs control): 0.266
- log2 Fold Change (gene HP1102): 1.324
- log2 Fold Change (gene HP1112): -0.531
- log2 Fold Change HP1113 (gene HP1113, lethal concentrations of V vs control): 0.235
- log2 Fold Change HP1115 (gene HP1115, lethal concentrations of V vs control): 0.309
- log2 Fold Change HP1120 (gene HP1120, lethal concentrations of V vs control): 0.296
- log2 Fold Change HP1122 (gene HP1122, lethal concentrations of V vs control): 0.364
- log2 Fold Change HP1125 (gene HP1125, lethal concentrations of V vs control): 0.243
- log2 Fold Change HP1132 (gene HP1132, lethal concentrations of V vs control): 0.451
- log2 Fold Change HP1139 (gene HP1139, lethal concentrations of V vs control): 0.341
- log2 Fold Change HP1140 (gene HP1140, lethal concentrations of V vs control): 0.260
- log2 Fold Change HP1142 (gene HP1142, lethal concentrations of V vs control): 0.424
- log2 Fold Change HP1154 (gene HP1154, lethal concentrations of V vs control): 0.259
- log2 Fold Change HP1157 (gene HP1157, lethal concentrations of V vs control): 0.263
- log2 Fold Change (gene HP1159): -0.549
- log2 Fold Change HP1164 (gene HP1164, lethal concentrations of V vs control): 0.208
- log2 Fold Change HP1165 (gene HP1165, lethal concentrations of V vs control): 0.470
- log2 Fold Change HP1171 (gene HP1171, lethal concentrations of V vs control): 0.290
- log2 Fold Change (gene HP1184): -0.471
- log2 Fold Change HP1193 (gene HP1193, lethal concentrations of V vs control): 0.413
- log2 Fold Change (gene HP1196): -0.491
- log2 Fold Change HP1218 (gene HP1218, lethal concentrations of V vs control): 0.194
- log2 Fold Change HP1221 (gene HP1221, lethal concentrations of V vs control): 0.426
- log2 Fold Change HP1222 (gene HP1222, lethal concentrations of V vs control): 0.384
- log2 Fold Change HP1226 (gene HP1226, lethal concentrations of V vs control): 0.186
- log2 Fold Change (gene HP1232): -0.511
- log2 Fold Change HP1234 (gene HP1234, lethal concentrations of V vs control): 0.340
- log2 Fold Change (gene HP1243): 1.352
- log2 Fold Change HP1251 (gene HP1251, lethal concentrations of V vs control): 0.458
- log2 Fold Change (gene HP1258): -0.491
- log2 Fold Change HP1261 (gene HP1261, lethal concentrations of V vs control): 0.181
- log2 Fold Change HP1262 (gene HP1262, lethal concentrations of V vs control): 0.367
- log2 Fold Change HP1264 (gene HP1264, lethal concentrations of V vs control): 0.389
- log2 Fold Change HP1267 (gene HP1267, lethal concentrations of V vs control): 0.146
- log2 Fold Change (gene HP1270): -0.476
- log2 Fold Change HP1285 (gene HP1285, lethal concentrations of V vs control): 0.248
- log2 Fold Change HP1322 (gene HP1322, lethal concentrations of V vs control): 0.318
- log2 Fold Change HP1337 (gene HP1337, lethal concentrations of V vs control): 0.239
- log2 Fold Change (gene HP1343): -0.493
- log2 Fold Change (gene HP1346): -0.518
- log2 Fold Change HP1352 (gene HP1352, lethal concentrations of V vs control): 0.160
- log2 Fold Change (gene HP1355): -0.601
- log2 Fold Change (gene HP1357): -0.489
- log2 Fold Change HP1358 (gene HP1358, lethal concentrations of V vs control): 0.185
- log2 Fold Change HP1359 (gene HP1359, lethal concentrations of V vs control): 0.220
- log2 Fold Change HP1361 (gene HP1361, lethal concentrations of V vs control): 0.344
- log2 Fold Change HP1363 (gene HP1363, lethal concentrations of V vs control): 0.291
- log2 Fold Change HP1366 (gene HP1366, lethal concentrations of V vs control): 0.348
- log2 Fold Change HP1371 (gene HP1371, lethal concentrations of V vs control): 0.280
- log2 Fold Change HP1377 (gene HP1377, lethal concentrations of V vs control): 0.474
- log2 Fold Change HP1380 (gene HP1380, lethal concentrations of V vs control): 0.326
- log2 Fold Change (gene HP1381): -0.548
- log2 Fold Change HP1385 (gene HP1385, lethal concentrations of V vs control): 0.232
- log2 Fold Change HP1404 (gene HP1404, lethal concentrations of V vs control): 0.393
- log2 Fold Change (gene HP1411): 1.307
- log2 Fold Change HP1433 (gene HP1433, lethal concentrations of V vs control): 0.238
- log2 Fold Change HP1434 (gene HP1434, lethal concentrations of V vs control): 0.407
- log2 Fold Change HP1435 (gene HP1435, lethal concentrations of V vs control): 0.348
- log2 Fold Change HP1436 (gene HP1436, lethal concentrations of V vs control): 0.297
- log2 Fold Change HP1438 (gene HP1438, lethal concentrations of V vs control): 0.319
- log2 Fold Change (gene HP1442): -0.497
